Tests used:
Conditions in all cases: 125I-somatostatin-14 binding inhibition, CHO cell membrane fraction, 25°C for 60 minutes, Hill plots
[1] = target: T1, human somatostatin receptor protein subtype 3 (SSTR3) (Homo sapiens, UniProt P32745); assay: Measurement of the binding inhibition rate of 125I-Somatostatin (SSTR3)
T1 construct: expressed in transfected cells; host or cells: CHO (dhfr-) cells, strain SSTR3-15-19, plasmid pA1-11-SSTR3 (pAKKO-111 vector); membrane fraction
Method: 1 x 10^6 CHO (dhfr^-) cells were cultured for 24 hours in HAM F12 medium containing 10% bovine fetal serum on a laboratory dish of 8 cm in diameter. The cells were transfected by 10 µg of the human SSTR3 DNA expression plasmid, pA-1-11-SSTR3, obtained under the above (5) using the calcium phosphate method. The medium was switched to DMEM medium containing 10% dialyzed bovine fetal serum 24 hours after the transfection to select the colony-forming cells (i.e. DHFR^+ cells) in this medium. Further, the selected cells were cloned from a single cell by the limiting dilution method and the somatostatin receptor protein expression activity of these cells was measured by the binding assay mentioned under the above (3). Thus, a highly somatostatin-binding cell strain, SSTR3-15-19, was selected.
(§1) Measurement of the binding inhibition rate of ^125I-Somatostatin
(§2) The receptor binding inhibition rate (%) of the subject compound was calculated using each of the membrane fractions prepared in Experimental Examples 1 and 2.
(§3) The membrane fraction was diluted with a buffer solution for assay to adjust the concentration to 3 µg/ml. The diluate was placed in tubes each in quantity of 173 µl. To this were simultaneously added 2 µl of a solution of a subject compound in DMSO and 25 µl of a 200 pM radioisotope-labeled somatostatin-14 (^125I-somatostatin-14: Amersham). For measurement of the maximum binding, a reaction mixture added with 2 µl of DMSO and 25 µl of a 200 pM ^125I-somatostatin was prepared. For measurement of non-specific binding, a reaction mixture added with 2 µl of a 100 µM somatostatin solution in DMSO and 25 µl of a 200 pM ^125I-somatostatin solution was prepared at the same time. The mixtures were allowed to react at 25°C for 60 minutes. Then, the reaction mixture was filtered by aspiration using a Whatman glass filter (GF-B) treated with polyethylenimine. After filtration, the radioactivity of ^125I-somatostatin-14 remaining on the filter paper was measured by a γ-counter. The binding inhibition rate (%) of each subject compound was calculated by the following formula: (TB-SB)/(TB-NSB) x 100 [formula] SB: radioactivity when a compound was added TB: maximum binding radioactivity NSB: non-specific binding radioactivity
(§4) The binding inhibition rates were measured by changing the concentrations of the subject compound, and the 50% inhibiting concentration of the subject compound (IC50 value) was calculated by the Hill plots.

[2] = target: T2, human somatostatin receptor protein subtype 5 (SSTR5) (Homo sapiens, UniProt P35346); assay: Measurement of the binding inhibition rate of 125I-Somatostatin (SSTR5)
T2 construct: expressed in transfected cells; host or cells: CHO (dhfr-) cells, strain SSTR5-32-4, plasmid pA1-11-SSTR5 (pAKKO-111 vector); membrane fraction
Method: 1 x 10^6 CHO (dhfr^-) cells were cultured for 24 hours in HAM F12 medium containing 10% bovine fetal serum on a laboratory dish of 8 cm in diameter. To the cells was transfected 10 µg of the human SSTR5 cDNA expression plasmid, pA-1-11-SSTR5, obtained under the above (11) by the calcium phosphate method. The medium was switched to DMEM medium containing 10% dialyzed bovine fetal serum 24 hours after the transfection to select the colony-forming cells (i.e. DHFR^+ cells) in this medium. Further, the selected cells were cloned from a single cell by the limiting dilution method and the somatostatin receptor protein expression activity of these cells was measured by binding assay mentioned under the above (3). Thus, a highly somatostatin-biding cell strain, SSTR5-32-4, was selected.
as §1, §2, §3, §4

[3] = target: T3, human somatostatin receptor protein subtype 2 (SSTR2) (Homo sapiens, UniProt P30874); assay: Measurement of the binding inhibition rate of 125I-Somatostatin (SSTR2)
T3 construct: expressed in transfected cells; host or cells: CHO (dhfr-) cells, strain SSTR2-HS5-9, plasmid pAC01 (pAKKO-111 vector); membrane fraction
Method: 1 x 10^6 CHO (dhfr^-) cells were cultured for 24 hours in HAM F12 medium containing 10% bovine fetal serum on a laboratory dish of 8 cm in diameter. To the cells was transfected 10 µg of the human SSTR2 cDNA expression plasmid, pA-C01, obtained under the above (5) by the calcium phosphate method (Cell Phect Transfection Kit: Pharmacia). The medium was switched to DMEM medium containing 10% dialyzed bovine fetal serum 24 hours after the transfection to select the colony-forming cells (i.e. DHFR^+ cells) in this medium. Further, the selected cells were cloned from a single cell by the limiting dilution method and a cell strain which highly expresses human SSTR2, SSTR2-HS5-9, was selected.
as §1, §2, §3, §4

T3 sequence (P30874 whole entry): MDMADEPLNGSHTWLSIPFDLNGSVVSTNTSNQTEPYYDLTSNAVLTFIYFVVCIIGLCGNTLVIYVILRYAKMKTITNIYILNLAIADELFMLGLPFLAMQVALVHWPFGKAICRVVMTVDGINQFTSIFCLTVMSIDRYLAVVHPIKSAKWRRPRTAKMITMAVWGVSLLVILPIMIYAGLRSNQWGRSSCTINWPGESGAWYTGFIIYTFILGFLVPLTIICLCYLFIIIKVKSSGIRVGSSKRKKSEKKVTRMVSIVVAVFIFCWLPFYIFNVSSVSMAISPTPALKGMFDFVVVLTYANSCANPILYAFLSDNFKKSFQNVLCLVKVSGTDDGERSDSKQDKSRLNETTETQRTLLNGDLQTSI
T2 sequence (P35346 whole entry): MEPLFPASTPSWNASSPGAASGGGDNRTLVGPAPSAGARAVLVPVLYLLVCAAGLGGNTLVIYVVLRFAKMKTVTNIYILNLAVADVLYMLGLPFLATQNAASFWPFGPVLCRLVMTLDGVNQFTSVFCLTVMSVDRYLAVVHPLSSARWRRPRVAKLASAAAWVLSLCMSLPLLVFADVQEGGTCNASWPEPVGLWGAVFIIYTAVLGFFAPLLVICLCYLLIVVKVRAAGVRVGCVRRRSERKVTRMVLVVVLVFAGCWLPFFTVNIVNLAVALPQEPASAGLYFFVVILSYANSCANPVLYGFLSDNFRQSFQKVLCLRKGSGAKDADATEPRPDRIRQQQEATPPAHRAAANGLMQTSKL
T1 sequence (P32745 whole entry): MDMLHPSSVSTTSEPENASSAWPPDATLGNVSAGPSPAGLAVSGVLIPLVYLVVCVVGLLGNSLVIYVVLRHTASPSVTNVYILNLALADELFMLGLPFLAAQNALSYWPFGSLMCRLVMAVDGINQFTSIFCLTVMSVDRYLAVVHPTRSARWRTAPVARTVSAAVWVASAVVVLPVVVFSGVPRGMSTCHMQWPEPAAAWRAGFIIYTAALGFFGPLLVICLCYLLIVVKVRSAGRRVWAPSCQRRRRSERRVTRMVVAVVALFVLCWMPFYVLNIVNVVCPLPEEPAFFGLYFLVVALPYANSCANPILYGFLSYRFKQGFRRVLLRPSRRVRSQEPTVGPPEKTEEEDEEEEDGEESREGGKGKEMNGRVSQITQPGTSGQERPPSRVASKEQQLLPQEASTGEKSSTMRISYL

SMILES: CN(C)CC1Cc2cc(Cl)ccc2N(C(=O)[C@@H](Cc2c[nH]c3ccccc23)NC(=O)C2CCN(C(=O)c3cc4ccccc4[nH]3)CC2)C1 (stereo partly drawn) [Example 14, N-[(1R)-2-[6-chloro-3-(R,S)-[(dimethylamino)methyl]-1,2,3,4-tetrahydro-1-quinolinyl]-1-(1-indol-3-ylmethyl)-2-oxoethyl]-1-(1-indol-2-ylcarbonyl)-4-piperidinecarboxamide]
- IC50 [1]: 70 nM
- IC50 [2]: 300 nM
- IC50 [3]: 0.6 nM

SMILES: CN(C)C[C@H]1Cc2cc(Cl)ccc2N(C(=O)[C@@H](Cc2c[nH]c3ccccc23)NC(=O)CCC2CCN(C(=O)c3ccccc3)CC2)C1 [Example 31, 3-(1-benzoyl-4-piperidinyl)-N-[(1R)-2-[(3R)-6-chloro-3-[(dimethylamino)methyl]-1,2,3,4-tetrahydro-1-quinolinyl]-1-(1-indol-3-ylmethyl)-2-oxoethyl]propanamide]
- IC50 [1]: 60 nM
- IC50 [2]: 300 nM
- IC50 [3]: 2 nM

SMILES: CN(C)C[C@H]1Cc2cc(Cl)ccc2N(C(=O)[C@@H](Cc2c[nH]c3ccccc23)NC(=O)C2CCN(C(=O)c3cc4ccccc4n3C)CC2)C1 [Example 51, N-[(1R)-2-[(3R)-6-chloro-3-[(dimethylamino)-methyl]-1,2,3,4-tetrahydro-1-quinolinyl]-1-(1-indol-3-ylmethyl)-2-oxoethyl]-1-(1-methylindol-2-ylcarbonyl)-4-piperidinecarboxamide]
- IC50 [1]: 80 nM
- IC50 [2]: 400 nM
- IC50 [3]: 0.3 nM

SMILES: CN(C)C[C@H]1Cc2cc(Cl)ccc2N(C(=O)[C@@H](Cc2c[nH]c3ccccc23)NC(=O)N2CCC(C(=O)c3ccc(Cl)cc3)CC2)C1 [Example 130, 4-(4-chlorobenzoyl)-N-[(1R)-2-[(3R)-6-chloro-3-[(dimethylamino)methyl]-1,2,3,4-tetrahydro-1-quinolinyl]-1-(1-indol-3-ylmethyl)-2-oxoethyl]-1-piperidinecarboxamide]
- IC50 [1]: 40 nM
- IC50 [2]: 400 nM
- IC50 [3]: 2 nM

SMILES: CN(C)C[C@H]1Cc2cc(Cl)ccc2N(C(=O)[C@@H](Cc2c[nH]c3ccccc23)NC(=O)N2CCC(Oc3ccccc3)CC2)C1 [Example 145-2, N-[(1R)-2-[(3R)-6-chloro-3-[(dimethylamino)methyl]-1,2,3,4-tetrahydro-1-quinolinyl]-1-(1H-indol-3-ylmethyl)-2-oxoethyl]-4-phenoxyl-1-piperidinecarboxamide]
- IC50 [1]: 10 nM
- IC50 [2]: 200 nM
- IC50 [3]: 1 nM

From EP1227090A1, “AMINE DERIVATIVES” (Tadeka Chemical Industries, Ltd., priority 1999, dated 2001)
